According to patent publication US20120100990A1, “4 -AMINOPICOLINATES AND THEIR USE AS HERBICIDES” (SYNGENTA CROP PROTECTION LLC, priority 2009, published 2012):

Key:
Type in all cases: in vivo
[1] = test system: Alopecurus myosuroides (ALOMY); test: Pre-emergence biological efficacy, glasshouse pot test; settings: 312 h, 1,000 g/ha, evaluated after 13 days, 100=total damage, 0=no damage, read-out: Percentage damage caused to weed species, pre-emergence, ALOMY
In short: (§1)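 Seeds sown in standard soil were sprayed one day after sowing with compound in acetone/water (50:50) plus 0.5% Tween 20 at 1000 or 250 g/ha. Pots stayed in the glasshouse at 24/16 °C day/night, 14 h light, 65% humidity. Damage was scored after 13 days (0 = none, 100 = total).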

[2] = test system: Amaranthus retroflexus (AMARE); test: as above; settings: 312 h, 1,000 g/ha, evaluated after 13 days, 100=total damage, 0=no damage, read-out: Percentage damage caused to weed species, pre-emergence, AMARE
In short: as §1

[3] = test system: Echinochloa crus-galli (ECHCG); test: as above; settings: 312 h, 1,000 g/ha, evaluated after 13 days, 100=total damage, 0=no damage, read-out: Percentage damage caused to weed species, pre-emergence, ECHCG
In short: as §1

[4] = test system: Ipomea hederaceae (IPOHE); test: as above; settings: Ipomoea hederacea, 312 h, 1,000 g/ha, evaluated after 13 days, 100=total damage, 0=no damage, read-out: Percentage damage caused to weed species, pre-emergence, IPOHE
In short: as §1

Setaria faberi (SETFA) [5] = test: as above; settings: 312 h, 1,000 g/ha, evaluated after 13 days, 100=total damage, 0=no damage, read-out: Percentage damage caused to weed species, pre-emergence, SETFA
In short: as §1

Solanum nigrum (SOLNI) [6] = test: as above; settings: 312 h, 1,000 g/ha, evaluated after 13 days, 100=total damage, 0=no damage, read-out: Percentage damage caused to weed species, pre-emergence, SOLNI
In short: as §1

[7] = test system: Alopecurus myosuroides (ALOMY); test: Post-emergence biological efficacy, glasshouse pot test; settings: 312 h, 1,000 g/ha, evaluated after 13 days, 100=total damage, 0=no damage, read-out: Percentage damage caused to weed species, post-emergence, ALOMY
In short: (§2)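 Damage, rated 0 (none) to 100 (total) at 13 days after treatment, followed post-emergence spraying at 250 or 1000 g/ha in acetone/water with 0.5% Tween 20. Plants had been raised 8 days beforehand under glasshouse conditions of 24/16 °C day/night, 14 h light and 65% humidity.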

[8] = test system: Amaranthus retroflexus (AMARE); test: as above; settings: 312 h, 1,000 g/ha, evaluated after 13 days, 100=total damage, 0=no damage, read-out: Percentage damage caused to weed species, post-emergence, AMARE
In short: as §2

[9] = test system: Echinochloa crus-galli (ECHCG); test: as above; settings: 312 h, 1,000 g/ha, evaluated after 13 days, 100=total damage, 0=no damage, read-out: Percentage damage caused to weed species, post-emergence, ECHCG
In short: as §2

[10] = test system: Ipomea hederaceae (IPOHE); test: as above; settings: Ipomoea hederacea, 312 h, 1,000 g/ha, evaluated after 13 days, 100=total damage, 0=no damage, read-out: Percentage damage caused to weed species, post-emergence, IPOHE
In short: as §2

Setaria faberi (SETFA) [11] = test: as above; settings: 312 h, 1,000 g/ha, evaluated after 13 days, 100=total damage, 0=no damage, read-out: Percentage damage caused to weed species, post-emergence, SETFA
In short: as §2

Solanum nigrum (SOLNI) [12] = test: as above; settings: 312 h, 1,000 g/ha, evaluated after 13 days, 100=total damage, 0=no damage, read-out: Percentage damage caused to weed species, post-emergence, SOLNI
In short: as §2

SMILES | pest or weed control at 1000 g/ha [1] | pest or weed control at 1000 g/ha [2] | pest or weed control at 1000 g/ha [3] | pest or weed control at 1000 g/ha [4] | pest or weed control at 1000 g/ha (Setaria faberi (SETFA) [5]) | pest or weed control at 1000 g/ha (Solanum nigrum (SOLNI) [6]) | pest or weed control at 1000 g/ha [7] | pest or weed control at 1000 g/ha [8] | pest or weed control at 1000 g/ha [9] | pest or weed control at 1000 g/ha [10] | pest or weed control at 1000 g/ha (Setaria faberi (SETFA) [11]) | pest or weed control at 1000 g/ha (Solanum nigrum (SOLNI) [12])
C=Cc1c(NCc2ccccc2C(F)(F)F)cc(Cl)nc1C(=O)OC [Compound 74-12, 6-Chloro-3-ethenyl-4-[(2-trifluoromethyl-phenylmethyl)-amino]-pyridine-2-carboxylic acid methyl ester] | 0% | 0% | 0% | 0% | 0% | 0% | 10% | 100% | 20% | 10% | 10% | 70%
COC(=O)c1nc(Cl)cc(NCc2cccs2)c1Cl [Compound 75-2, 3,6-Dichloro-4-(thiophen-2-ylmethylamino)-pyridine-2-carboxylic acid methyl ester] | 70% | 100% | 60% | 90% | 80% | 100% | 60% | 100% | 70% | 70% | 80% | 100%
C=Cc1c(NCc2cccs2)cc(Cl)nc1C(=O)OC [Compound 75-12, 6-Chloro-3-ethenyl-4-(thiophen-2-ylmethylamino)-pyridine-2-carboxylic acid methyl ester] | 80% | 100% | 60% | 80% | 70% | 100% | 50% | 100% | 70% | 50% | 80% | 100%
COC(=O)c1nc(Cl)cc(NCc2cc(C)nn2C)c1Cl [Compound 77-2, 3,6-Dichloro-4-[(1,3-dimethylpyrazol-5-ylmethyl)-amino]-pyridine-2-carboxylic acid methyl ester] | 60% | 100% | 20% | 90% | 70% | 100% | 50% | 100% | 30% | 80% | 80% | 100%
COC(=O)c1nc(Cl)cc(NCc2cccnc2)c1Cl [Compound 78-2, 3,6-Dichloro-4-(pyridin-3-ylmethylamino)-pyridine-2-carboxylic acid methyl ester] | 40% | 100% | 20% | 90% | 50% | 100% | 20% | 100% | 20% | 70% | 50% | 100%
COC(=O)c1nc(Cl)cc(NCc2ccncc2)c1Cl [Compound 80-2, 3,6-Dichloro-4-(pyridin-4-ylmethylamino)-pyridine-2-carboxylic acid methyl ester] | 70% | 100% | 20% | 90% | 80% | 100% | 40% | 90% | 60% | 70% | 50% | 100%
COC(=O)c1nc(Cl)cc(NCc2cnc(C)cn2)c1Cl [Compound 81-2, 3,6-Dichloro-4-[(5-methylpyrazin-2-ylmethyl)-amino]-pyridine-2-carboxylic acid methyl ester] | 70% | 100% | 70% | 90% | 70% | 100% | 40% | 100% | 40% | 60% | 80% | 100%
